From patent US10544156B2, “Hemi-synthetic trilobine analogs for use as a drug” (PIERRE FABRE MEDICAMENT, priority 2015, dated 2020) come the findings set out here.

Molecules are shown by their SMILES. Where two headings read alike, the source gives them in different places.

Assay [1] concerns the target T1, human C-terminal DNMT3A (623-908a.a.) (Homo sapiens, UniProt Q9Y6K1).
T1 construct: The human C-terminal DNMT3A (623-908a.a.); made in house
The assay can be described thus: hDNMT3A assay (restriction-based fluorescence assay). It is filed as biochemical. The note with it: for inhibition at 10 µM: read-out: hDNMT 3A inhibition, Inhibition (%) 10 μM; for inhibition at 32 µM: read-out: hDNMT 3A inhibition, Inhibition (%) 32 μM. The source says:
hDNMT3A enzyme inhibition was adapted from the restriction-based fluorescence assay protocol as described in the literature (Ceccaldi et al. Chem Bio Chem 2011, 12, 1337-1345). Briefly, a 5′-labelled biotin oligonucleotide is hybridized to its complementary strand labelled with 6-carboxyfluorescein at the 3′-end into a 384 well microplate (black Optiplates; Perkin Elmer) pre-coated with avidin. The duplex contains a unique CpG site overlapping with a restriction site of a methylation sensitive restriction enzyme. The human C-terminal DNMT3A (623-908a.a.), produced as described in (Gros et al. Nucl. Acids Res. 2013, 41(19):e185), was added in each well (200 ng/well) and mixed with the chemical compounds at desired concentrations and freshly prepared SAM (20 μM final concentration) to start the reaction in a total volume of 50 μL. After 1 hour incubation at 37° C. each well were washed three times with PBS, Tween-20 0.05%, NaCl (500 mM) and three more times with PBST. Specific fluorescent signals were detected with the methylation-sensitive restriction enzyme HpyCH4IV (NEB) as described and measured on a Perkin Elmer Envision detector. The percentage of inhibition is reported. The formula used to calculate the percentage of inhibition is [(X−Y)/X]×100, where X is the signal determined in the absence of the inhibitor and Y is the signal obtained in the presence of the inhibitor. The concentration at which 50% of efficacy of inhibition is observed (EC50) was determined by analysis of a concentration range of the tested compound in triplicates. The non-linear regression fittings with sigmoidal dose-response (variable slope) were performed with GraphPad Prism 4.03 (GraphPad Software).

In assay [2] the test system is CMV promoter in KG-1-Luc cells. The assay can be described thus: CMV promoter analysis by NOMe-Seq (CpG methylation and chromatin accessibility). It is filed as cell-based, human. As to conditions: at 5 μM, 24 h; for DNA demethylation, KG1 CMV-Luc model: methylated cytosine treated vs non treated; for Chromatin accessibility, KG1 CMV-Luc model: ratio of GpC methylation. The method, then: Using the Nucleosome Occupancy and Methylome Sequencing (NOMe-Seq) technique, the methylation status of the CMV promoter and the position of the nucleosomes on such promoter were both analysed.
NOMe-seq is a modified version of the methylation-dependent single promoter assay described by Miranda et al. (Curr Protoc Mol Biol. 2010 21.17.1-16) and the methylase-based DNA assay was performed as previously described with minor modifications. After nuclei extraction, GpC DNA methyltransferase M.CviPI (New England Biolabs) reactions were done in M.CviPI reaction buffer. GpC methyltransferase treatment was followed by DNA extraction, sodium bisulfite conversion, PCR amplification of the region of interest, cloning, and sequencing of individual clones to reveal the structure of single replicas as functional units. After treatment with the compounds or with DMSO, KG-1-Luc cells were centrifuged for 5 min at 500×g. Cell pellets were washed in ice-cold PBS, resuspended in 1 mL of ice-cold nuclei buffer [10 mM Tris (pH 7.4), 10 mM NaCl, 3 mM MgCl2, 0.1 mM EDTA, and 0.5% Nonidet P-40, plus protease inhibitors] per 2×10^6 cells, and incubated on ice for 10 min. Nuclei were recovered by centrifugation at 900×g for 5 min, washed twice in nuclei wash buffer [10 mM Tris (pH 7.4), 10 mM NaCl, […], and 0.1 mM EDTA containing protease inhibitors], and resuspended with 200 μL in 1×M.CviPI reaction buffer supplemented with 0.3 M sucrose, 160 μM SAM (New England Biolabs). 100 μL of purified genomic DNA were treated with 100 U of M.CviPI for 15 min at 37° C. in 200 μL final volume. The other part of 100 μL of purified genomic DNA were not treated with 100 U of M.CviPI but just incubated for 15 min at 37° C. to obtain CpG methylation profile. Reactions were stopped by the addition of an equal volume of stop solution [20 mM Tris.HCl (pH 7.9), 600 mM NaCl, 1% SDS, 10 mM EDTA, and 400 μg/mL Proteinase K] and incubated at 55° C. overnight. DNA was purified by phenol/chloroform extraction and ethanol precipitation. Bisulfite conversion was performed with the EZ DNA Methylation-Gold Kit (Zymo Research). Bisulfited DNA was eluted with 12 μL of water and 8 μL were used for CMV amplification.
The CMV promoter DNA amplification was carried on 8.3 μL eluted bisulfited DNA in 20 μL PCR reaction containing 1×KAPA2G Buffer A, 2.0 mM MgCl2, 200 μM dNTPs, 125 nM each primer and 1.0 units KAPA2G™ Robust HotStart DNA Polymerase (KapaBiosystems) on C1000 Touch™ thermal cycler 95° C. 3 min following by 95° C. for 20 sec, 55° C. for 30 sec, 72° C. for 30 sec×40 cycles and final extension at 72° C. 1 min. PCR fragments were quality controlled by agarose gel electrophoresis.
Steps of cloning and sequencing were as those described previously except that M13 PCR was used to amplify the cloned sequence in 20 μL PCR reaction volume containing 1×KAPA2G Buffer B, 2.0 mM MgCl2, 200 μM dNTPs, 125 nM each primer and 1.0 U KAPA2G™ Robust HotStart DNA Polymerase (KapaBiosystems) on C1000 Touch™ thermal cycler 95° C. 3 min following by 95° C. for 20 sec, 55° C. for 30 sec, 72° C. for 30 sec×40 cycles and final extension at 72° C. 1 min.
Genomic alignment and bisulfite sequence analysis was performed largely as previously described (Berman et al. Nat Genet 2012, 44, 40-6).
BISMA (Bisulfite Sequencing DNA Methylation Analysis) software was used for CpG methylation analysis of primary bisulfite sequencing data from subcloned individual molecules (Rohde et al. BMC Bioinformatics 2010, 11, 230). Methyl Viewer (Pardo et al. Nucleic Acids Res 2011, 39, e5) was used to obtain GC methylation results and nucleosome occupancy. The ratio of methylation is representative of the chromatin accessibility by M.CviPI and nucleosome occupancy. The combined methylation status for each clone by CpG (BISMA) or GpC (Methyl Viewer) site has been assembled. […]

[3] abbreviates: concentration at which 50% of efficacy of inhibition is observed, read-out: EC50 (μM), hDNMT 3A inhibition.
The mark [4] stands for this setting: interval line below the EC50 of the same compound, read-out: EC50 (μM), range given.

T1 sequence (Q9Y6K1 627-912 limits assumed): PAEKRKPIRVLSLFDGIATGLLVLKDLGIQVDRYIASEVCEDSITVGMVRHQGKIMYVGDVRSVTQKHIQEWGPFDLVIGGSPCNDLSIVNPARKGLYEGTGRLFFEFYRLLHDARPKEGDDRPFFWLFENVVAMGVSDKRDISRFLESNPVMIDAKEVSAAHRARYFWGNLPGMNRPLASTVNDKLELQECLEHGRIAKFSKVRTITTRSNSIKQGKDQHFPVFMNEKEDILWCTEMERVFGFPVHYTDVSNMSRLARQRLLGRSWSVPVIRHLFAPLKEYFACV

Turning to `COc1ccc2cc1Oc1ccc(cc1)C[C@@H]1NCCc3cc(OC)c4c(c31)Oc1cc3c(cc1O4)CCN(C)[C@H]3C2` [Trilobine (1), trilobine], the concentration for a half-maximal effect (EC50) in assay [1] (setting [3]) came out at 3.8 µM. Further, in assay [1] (setting [4]), the EC50 was in the range of 3.21 to 4.49 µM. For the same compound, in assay [1], the inhibition at 10 µM came out at 88% and the inhibition at 32 µM amounted to 96%. For the same compound, in assay [2], the “DNA demethylation, KG1 CMV-Luc model” value was −37 ± 8% and the “Chromatin accessibility, KG1 CMV-Luc model” value (“Chromatin accessibility” below) is given as 1.9 ± 0.1.

As for `CCN(CC)CCCNC(=S)N1CCc2cc3c4cc2[C@@H]1Cc1ccc(OC)c(c1)Oc1ccc(cc1)C[C@H]1c2c(cc(OC)c(c2O4)O3)CCN1C(=S)NCCCN(CC)CC` [Product 41], the EC50 in assay [1] (setting [3]) was in the range of 0.557 to 0.91 µM. Also, in assay [1], the inhibition at 10 µM was 94% and the inhibition at 32 µM is 95%. In assay [2], the “DNA demethylation, KG1 CMV-Luc model” value is 0% and the “Chromatin accessibility” value is 2.1 ± 0.1.

Turning to `CNC(=O)N1CCc2cc(OC)c3c4c2[C@@H]1Cc1ccc(cc1)Oc1cc(ccc1OC)C[C@H]1c2cc(c(cc2CCN1C)O3)O4` [Product 44], the EC50 in assay [1] (setting [3]) was found to be 3.96 µM. The EC50 in assay [1] (setting [4]) lay within 3.04 to 5.17 µM. In assay [1], the inhibition at 10 µM amounted to 82% and the inhibition at 32 µM was found to be 96%. Moreover, in assay [2], the “DNA demethylation, KG1 CMV-Luc model” value is given as −53 ± 6% and the “Chromatin accessibility” value turned out to be 2.3 ± 0.2.

What is called EC50 is the concentration needed to bring the measured effect to its halfway point. One may read the inhibition as the percentage by which the read-out fell short of the control.
